The record followed here is BindingDB's records for patent US10774051 (SHIONOGI & CO., LTD., 2020).

For this experiment, the target named is T1, P2X purinoceptor 7 [Y155H,R270H] (Homo sapiens, UniProt Q99572, R270H/Y155H).
T1 construct: gene P2RX7
Put plainly: Evaluation of a Human P2X7 Receptor Inhibitory Activity. Here is the method:
Stably expressing cell line (1321N1 cell transfected with the human P2X7 receptor gene (GenBank accession number NM_002562.5 including T606C and G952A SNP)) was used. The cells were seeded in a 384-well microtiter plate at a concentration of 8000 cells/well and cultured in the medium (10% fetal bovine serum, 25 mM HEPES, 1% penicillin and streptomycin in DMEM) for one day at 37° C. under 5% carbon dioxide atmosphere. After replacing with 20 μL of the HBSS buffer (20 mM HEPES, 55.6 mM D-glucose, 1×HBSS(−), pH7.4-7.5), 15 μL of 17.3 μM Yo-Pro solution in the HBSS buffer was added. The plate was placed in high-throughput cellular screening system FLIPR TETRA (Molecullar Devices, LLC.) and 15 μL of 130 μM BzATP solution in the HBSS buffer was added. Measurement of fluorescence intensity by FLIPR TETRA was started. After eight minutes, 15 μL of DMSO solutions containing different concentrations of the compound of the present invention as prepared by dilution with the HBSS buffer were dispensed to each well through the built-in automatic dispenser, and the measurement of fluorescence intensity was continued for 20 minutes. […] Changing values of fluorescence intensity by the compound of the present invention were calculated by difference between maximum and minimum fluorescence intensity for 20 minutes. IC50 was calculated using logistic approximation.

A value given as a limit tells only on which side of the number the result lay.

T1 sequence (Q99572 whole entry Y155H/R270H, looked up): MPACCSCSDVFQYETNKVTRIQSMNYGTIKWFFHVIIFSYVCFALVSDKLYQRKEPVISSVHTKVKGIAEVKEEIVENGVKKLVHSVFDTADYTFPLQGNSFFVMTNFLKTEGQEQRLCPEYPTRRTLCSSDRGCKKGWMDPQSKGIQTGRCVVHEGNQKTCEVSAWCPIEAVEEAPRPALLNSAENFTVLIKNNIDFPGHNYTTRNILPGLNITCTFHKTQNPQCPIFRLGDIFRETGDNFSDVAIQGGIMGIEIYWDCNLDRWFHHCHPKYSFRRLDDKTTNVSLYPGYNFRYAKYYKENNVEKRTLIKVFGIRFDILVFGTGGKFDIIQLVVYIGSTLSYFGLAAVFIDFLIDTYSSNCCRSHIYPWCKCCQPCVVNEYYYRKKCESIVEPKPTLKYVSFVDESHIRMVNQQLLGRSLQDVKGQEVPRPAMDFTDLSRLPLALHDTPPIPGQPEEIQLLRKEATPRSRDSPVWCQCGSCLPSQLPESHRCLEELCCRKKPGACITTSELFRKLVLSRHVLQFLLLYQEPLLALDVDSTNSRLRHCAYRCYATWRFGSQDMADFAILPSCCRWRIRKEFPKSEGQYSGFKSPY

What is called IC50 is the point on the concentration scale where inhibition reaches its midpoint. A low value points to higher potency. Compound `COc1cn(Cc2cc(F)c(F)c(F)c2)c(Nc2cccc(Cl)c2C)nc1=O` [US10774051, Compound I-0004] registered a 50% inhibitory concentration (IC50) of under 10 nM.
